Several values for one entry are separate records, joined by “and”; a condition that tells them apart may be missing. Equal entries are not always repeated.
Columns and labels:
[1] = target: HIS-Keap1 full length / Biotin-Nrf2 (16-mer) (Homo sapiens, UniProt Q14145); assay: biochemical
[2] = test system: NQO1 activation in BEAS-2B cells; assay: BEAS-2B cellular MTT assay of NQO1 activation, 0.3% HSA; format: cell-based
Protocol: The growth rate of the BEAS-2B cells changed based on the lot of BEGM SingleQuots in the BEGM media. The cell growth rate was determined for each lot of SingleQuots. Ideally, cells were thawed into media with the new lot of SingleQuots and grown for two passages before testing; however, growing an active culture in the new lot of media for two to three passages before testing was also acceptable. Until the cell growth rate was determined, cells were seeded at different densities (cells/cm^2) in multiple tissue culture flasks in order to avoid the cells becoming more than 70% confluent. Cells should not go above 70% confluent as the cells differentiate when they become confluent. After the cells were grown in the new lot of media as described above, the number of cells per well needed to seed in the collagen plates was determined by seeding different numbers of cells per well and incubating for 48 hours. Cell confluency was checked after 48 hours and a cell number that results in just below to just above confluency was chosen for future plate seeding. Cell confluency in the assay plate was 95-100% confluent after 48 hours.
Cell media consists of BEBM basal media with the BEGM SingleQuots added. SingleQuots vials were thawed in the tissue culture hood, and GA-1000 (Gentamicin-Amphotericin) was not added.
If complete media was to be used immediately, BEBM basal media was warmed to room temperature in the hood, but not as high as 37° C. When the media was made for future use, SingleQuots were added to cold BEBM. One at a time, the SingleQuots components (except GA-1000) were added to the BEBM media. After removal of each component from the vial, the vial was rinsed with 0.5-1 mL of BEBM (depending on the volume the vial could hold) and added to the bottle of BEBM. Once all components were added, the label that comes with the SingleQuots kit was put on the bottle of media and the date was recorded. The bottle of media was mixed by gentle shaking. The media was not filtered. This media was stored at 4° C., with any leftover media disposed of one month after the date the SingleQuots were added.
BEAS-2B Cell Splitting Protocol:
First, Trypsin was warmed to 37° C. in the water bath. The media was then warmed to room temperature by letting it sit in the tissue culture hood, but not as high as 37° C. The media was aspirated from flask(s) and the flask(s) were washed with PBS. From 1 to 1.5 mL of warm trypsin were added to each flask and incubated at 37° C. until cells came off the flask on their own (~8-10 minutes), with no vigorous tapping on the flask to detach the cells.
Media was added to each flask to a total volume of 8-10 mL per flask and transferred to 15 mL conical tube(s). The cells were spun down at 120 g for 5 minutes, level 5 brake. The cells can be spun down between 100 and 150 g. Next the media was aspirated and the cell pellet was resuspended in fresh media by pipetting up and down and flicking the tube side to side. Any clumps of cells that remained were allowed to settle to the bottom of the tube before the top suspension was transferred into another tube, leaving about 1 mL of media in the original tube. The 1 mL of media and cell clumps were mixed with a single channel p1000 pipette, and any remaining clumps were removed before adding the cells in suspension to the other tube. The suspension was mixed with a pipette, an aliquot was removed, and the cells were counted. The amount of cells/cm^2 desired was calculated and the required volume of cells was added to tissue culture flasks. For example, use of SingleQuots with ~6000 cells/cm^2 was appropriate for a three day incubation and ~3000 cells/cm^2 for a five day incubation. Optimal cell density differed depending on lot of SingleQuots. The flasks were incubated at 37° C. in 5% CO2.
Day One: Seeding BEAS-2B Cells in Collagen Plates:
Plate(s) were either seeded with 0.3% or 0% HSA. While the protocol was similar for both conditions any differences are noted herein below. […]

[3] = test system: NQO1 activation in BEAS-2B cells; assay: BEAS-2B cellular MTT assay of NQO1 activation, 0% HSA; format: cell-based
Outline: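 For the 0% HSA condition, cells were seeded into collagen plates in HSA-free medium. Culture was BEAS-2B in BEBM plus BEGM SingleQuots lacking GA-1000, held under 70% confluence, at a seeding density reaching 95-100% confluence by 48 h.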

[4] = Homo sapiens, BEAS+, read-out: BEAS+ EC50
[5] = Homo sapiens, serum free, read-out: BEAS EC50 (nM) serum free
[6] = serum free, read-out: BEAS EC50 (nM) serum free
[7] = Homo sapiens, Serum Free W, read-out: BEAS EC50 (nM) Serum Free W
[8] = Serum Free W, read-out: BEAS EC50 (nM) Serum Free W
[9] = BEAS+ W, read-out: BEAS+ W EC50
[10] = Homo sapiens, BEAS+ W, read-out: BEAS+ W EC50

Chain of HIS-Keap1 full length / Biotin-Nrf2 (16-mer) (Q14145 whole entry): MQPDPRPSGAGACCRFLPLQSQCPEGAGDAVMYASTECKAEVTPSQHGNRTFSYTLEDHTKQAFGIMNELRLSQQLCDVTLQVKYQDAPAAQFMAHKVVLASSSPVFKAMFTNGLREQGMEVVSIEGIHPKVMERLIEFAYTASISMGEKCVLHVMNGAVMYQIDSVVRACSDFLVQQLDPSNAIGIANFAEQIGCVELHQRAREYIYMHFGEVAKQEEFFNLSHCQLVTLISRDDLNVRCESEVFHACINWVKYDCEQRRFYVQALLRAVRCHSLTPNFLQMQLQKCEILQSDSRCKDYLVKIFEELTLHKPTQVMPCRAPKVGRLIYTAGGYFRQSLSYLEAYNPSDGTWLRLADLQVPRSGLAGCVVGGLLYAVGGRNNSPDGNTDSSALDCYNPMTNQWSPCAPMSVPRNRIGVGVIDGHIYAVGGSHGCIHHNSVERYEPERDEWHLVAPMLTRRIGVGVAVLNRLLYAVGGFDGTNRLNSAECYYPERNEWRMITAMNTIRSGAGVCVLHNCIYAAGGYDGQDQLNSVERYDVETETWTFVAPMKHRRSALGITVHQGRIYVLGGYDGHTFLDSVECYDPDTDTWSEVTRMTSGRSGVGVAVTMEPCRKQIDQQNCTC

SMILES	IC50 [1]	EC50 [2, 4]	EC50 [3, 5]	EC50 [3, 6]	EC50 ([2]; BEAS+, read-out: BEAS+ EC50)	EC50 [3, 7]	EC50 [3, 8]	EC50 [2, 9]	EC50 [2, 10]
Cc1c2oc3cc(ccc13)OCCCCCCn1nnc3c(C)c(ccc31)C(CC(=O)O)c1ccc3c(c1)CN(CC3)C2=O (stereo not drawn) [Compound 402]	58.7 nM and 57.7 nM	> 10000 nM	–	–	–	–	–	–	–
Cn1c2cc3cc(cnc31)CCCCCOc1ccc(cn1)C(CC(=O)O)c1ccc3c(c1)CN(CC3)C2=O (racemic) [Compound 158, 2-(33-methyl-2-oxo-15-oxa-1,7,17,33-tetrazahexacyclo[19.5.3.216,19.13,6.15,9.024,28]tritriaconta-3,5,7,9(32),16,18,21(29),22,24(28),30-decaen-20-yl)acetic Acid]	3.6 nM and 3.2 nM	403 nM	18.2 nM	22.1 nM	400 nM	–	–	–	–
Cc1c2ccc3c1nnn3CCCCCc1cnc3c(c1)cc(n3C)C(=O)N1CCc3ccc(cc3C1)[C@H]2CC(=O)O [Compound 111]	0.4 nM and 0.2 nM	–	–	–	–	19 nM	19.5 nM	101 nM	122 nM
Cc1c2ccc3c1nnn3CCCCCCOc1ccc(nn1)C(=O)N1CCc3ccc(cc3C1)C2CC(=O)O (stereo not drawn) [Compound 380]	5.9 nM and 5.4 nM	1230 nM	1460 nM	1390 nM	1440 nM	–	–	–	–
O=C(O)CC1c2ccc(nc2)OCCCCCc2cnc(nc2)C(=O)N2CCc3ccc1cc3C2 (stereo not drawn) [Compound 196]	130 nM and 116 nM	> 10000 nM	> 10000 nM	–	–	–	–	–	–
Cc1c2ccc3c1nnn3CCCCCc1cnc(c(F)c1)C(=O)N1CCc3ccc(cc3C1)C2CC(=O)O (stereo not drawn) [Compound 219]	1.3 nM and 1.5 nM	228 nM	180 nM	208 nM	208 nM	–	–	–	–
Cc1c2n(C)c3ccc(cc13)CCCCCCn1nnc3c(C)c(cnc31)[C@@H](CC(=O)O)c1ccc3c(c1)CN(CC3)C2=O [Compound 63]	0.5 nM and 0.4 nM	–	–	–	–	0.7 nM	0.9 nM	3.7 nM and 3.5 nM	2.8 nM
Cc1c2ccc3c1nnn3CCCCCCOc1ccc(cc1)C(=O)N1CCc3ccc(cc3C1)C2CC(=O)O (stereo not drawn) [Compound 247]	1.6 nM and 1.7 nM	45.4 nM	29.4 nM	26.3 nM	47.2 nM	–	–	–	–
Cc1c2cnc3c1nnn3CCCCCc1cc(F)c(c(F)c1)C(=O)N1CCc3ccc(cc3C1)[C@H]2CC(=O)O [Compound 139]	0.1 nM	0.2 nM	0.2 nM	–	0.3 nM	–	–	–	–
O=C(O)CC1c2ccc(nc2)OCCCCOc2cnc(cn2)C(=O)N2CCc3ccc1cc3C2 (stereo not drawn) [Compound 185]	> 1000 nM	> 10000 nM	> 10000 nM	–	–	–	–	–	–
C[C@H](C(=O)O)[C@H]1c2ccc3c(c2)CN(CC3)C(=O)c2ccc(cc2)OCCCCCn2nnc3cc1ccc32 [Compound 234]	49.1 nM	3860 nM	1840 nM	1410 nM	5840 nM	–	–	–	–
Cc1c2ccc3c1nnn3CCCCCCn1cc(c3ccccc31)C(=O)N1CCc3ccc(cc3C1)C2CC(=O)O (stereo not drawn) [Compound 373]	3.6 nM and 3.9 nM	2030 nM	2070 nM	2030 nM	3140 nM	–	–	–	–
COc1cc2ccc1C(=O)N1CCc3ccc(cc3C1)C(CC(=O)O)c1cnc3c(nnn3CCCCC2)c1C (stereo not drawn) [Compound 144]	0.7 nM and 0.6 nM	–	–	–	–	–	–	60.2 nM	32.4 nM
Cc1c2ccc3c1nnn3CCCCCCc1ccc3c(c1)cc(n3C)C(=O)N1CCc3ccc(cc3C1)[C@@H]2[C@H](C)C(=O)O [Compound 34]	1.7 nM and 0.6 nM	–	–	–	–	3.6 nM	3.8 nM	189 nM	190 nM
Cc1c2cnc3c1nnn3CCCCCCCc1ccc(cc1)C(=O)N1CCc3ccc(cc3C1)[C@@H]2CC(=O)O [Compound 77]	0.4 nM and 0.8 nM	–	–	–	–	11.7 nM	13.7 nM	45.3 nM	34.5 nM
Cc1cc2cnc1OCCCCCc1ccc(cc1)C(=O)N1CCc3ccc(cc3C1)[C@H]2[C@@H](C)C(=O)O [Compound 76]	> 9900 nM	–	–	–	–	–	–	–	> 10000 nM

SMILES	IC50 [1]	EC50 [2, 4]	EC50 [3, 5]	EC50 [3, 6]	EC50 ([2]; BEAS+, read-out: BEAS+ EC50)	EC50 [3, 7]	EC50 [3, 8]	EC50 [2, 9]	EC50 [2, 10]
Cc1cc2ccc1C(=O)N1CCc3ccc(cc3C1)[C@H](CC(=O)O)c1ccc3c(c1)nnn3CCCCCCO2 [Compound 326]	2.7 nM and 0.8 nM	804 nM	–	–	–	–	–	–	–
COc1cc2ccc1C(=O)N1CCc3ccc(cc3C1)[C@@H](CC(=O)O)c1cnc3c(nnn3CCCCCC2)c1C [Compound 91]	1.9 nM	–	–	–	–	–	–	155 nM	131 nM
O=C(O)CC1c2cnc(nc2)OCCCCc2ccc(cc2Cl)C(=O)N2CCc3ccc1cc3C2 (stereo not drawn) [Compound 221]	216 nM	> 10000 nM	–	–	–	–	–	–	–
O=C(O)CC1c2cnc(nc2)OCCCCCc2cc(F)c(c(F)c2)C(=O)N2CCc3ccc1cc3C2 (stereo not drawn) [Compound 246]	5.3 nM	992 nM	–	–	1490 nM	–	–	–	–
O=C(O)CC1c2ccc3c(c2)CN(CC3)C(=O)c2ccc(cc2F)CCCCCCn2nnc3c(Cl)c1ccc32 (stereo not drawn) [Compound 148]	0.3 nM and 0.4 nM and 0.8 nM and 0.7 nM	–	–	–	0.3 nM	–	–	–	–
Cc1c2ccc3c1nnn3CCCCCc1ccc(cc1)C(=O)N1CCc3ccc(cc3C1)[C@H]2[C@@H](C)C(=O)O [Compound 130]	0.6 nM and 0.4 nM	–	–	–	–	–	–	0.5 nM and 0.7 nM	< 0.5 nM
Cc1c2ccc3c1nnn3CCOCCCc1ccc(c(F)c1)C(=O)N1CCc3ccc(cc3C1)[C@H]2CC(=O)O [Compound 363]	9 nM and 8.5 nM	–	–	–	–	–	–	711 nM	682 nM
O=C(O)CC1c2cnc(nc2)OCCCCc2cc(F)c(c(F)c2)C(=O)N2CCc3ccc1cc3C2 (stereo not drawn) [Compound 242]	> 1000 nM	> 10000 nM	–	–	–	–	–	–	–
O=C(O)CC1c2ccc3c(c2)CN(CC3)C(=O)c2cccc(c2)OCCCCCCn2nnc3cc1ccc32 (stereo not drawn) [Compound 403]	146 nM and 192 nM	> 10000 nM	–	–	–	–	–	–	–
Cc1c2ccc3c1nnn3CCCOCCOc1cc(F)c(c(F)c1)C(=O)N1CCc3ccc(cc3C1)C2CC(=O)O (stereo not drawn) [Compound 368, 2-(20,32-difluoro-34-methyl-22-oxo-14,17-dioxa-8,9,10,23-tetrazahexacyclo[21.5.3.218,21.13,7.06,10.026,30]tetratriaconta-1(29),3(34),4,6,8,18(33),19,21(32),26(30),27-decaen-2-yl)acetic Acid]	0.1 nM and 0.2 nM	114 nM	–	–	140 nM	–	–	–	–
Cc1cc2ccc1C(=O)N1CCc3ccc(cc3C1)C(CC(=O)O)c1ccc3c(nnn3CCCOCCO2)c1C (stereo not drawn) [Compound 374]	1 nM	–	–	–	–	–	–	297 nM	284 nM
Cc1c2oc3cc(ccc13)OCCCCCn1nnc3c(C)c(ccc31)C(CC(=O)O)c1ccc3c(c1)CN(CC3)C2=O (stereo not drawn) [Compound 401]	6.1 nM and 6.5 nM	7110 nM	–	–	–	–	–	–	–
Cc1c2ccc3c1nnn3CCCCc1ccc3ccc(cc3c1)C(=O)N1CCc3ccc(cc3C1)C2CC(=O)O (stereo not drawn) [Compound 390]	5.1 nM and 5.6 nM	3350 nM	–	–	5770 nM	–	–	–	–
COC(=O)CC1c2ccc3c(c2)CN(CC3)C(=O)c2ccc(cc2C)OCCCCCn2nnc3cc1ccc32 (stereo not drawn) [Compound 333]	1820 nM and > 1000 nM and 1220 nM	> 10000 nM	–	–	–	–	–	–	–
Cc1c2ccc3c1nnn3CCC/C=C/COc1cnc(nc1)C(=O)N1CCc3ccc(cc3C1)C2CC(=O)O (stereo not drawn) [Compound 400]	2 nM	31.6 nM	–	–	29.3 nM	–	–	–	–

Reference: patent publication US12692274B2, “Tetrahydroisoquinoline derivatives for the treatment of red blood disorders and inflammatory diseases” (Sanofi, priority 2020, dated 2026)
